“And” between values parts separate entries of the source, which are not always exact repeats. Equal values may be shown once. Read-outs that look alike come from different tables or passages of the source.
Columns and labels:
[1] = tested on: Peripheral blood lymphocytes; assay: In vitro cytotoxicity, Trypan Blue exclusion after 3 days of culture; settings: for % Viability: 3 days, means of 4 counts
Procedure: Peripheral blood lymphocytes were prepared from normal blood. Cells were cultured for 3 days in complete medium [(RPMI, a commercially available so-called standard salt solution) + 10 % foetal calf serum (FCS) + […]] in the presence/absence of phytohemagglutinin (PHA). Duplicate wells were set up. Incubation was at 37°C and 5 % CO₂.
On the third day, cell viabilities were determined using the Trypan Blue exclusion test.
Those products which were water soluble, were made up at 8 mg/mℓ stocks in sterile distilled water and diluted 1:10 in RPMI medium and again diluted 1:10 directly in the wells containing the cells in complete medium. The final concentrations were thus 80 µg/mℓ. For the lower dilutions, the 8 mg/mℓ stock was diluted 1:2 or 1:4 or 1:8 in water before being diluted in the RPMI medium.
For those products which were DMSO-soluble, the stocks were made'up at 8 mg/mℓ in 100 % DMSO. This stock was diluted 1:10 in 100 % FCS and diluted 1:10 directly in the wells containing the cells in RPMI medium only. The final concentrations were thus 10 % FCS and 1 % DMSO. For the lower dilutions, the 8 mg/mℓ stock was diluted 1:2 or 1:4 or 1:8 with DMSO before the FCS dilution step.
This stock was diluted in water to yield a working stock of 2 mg/mℓ. The 2 mg/ml stock was diluted 1:20 or 1:10 or 1:5 or 1:2.5 in water and again 1:10 in the wells to give the 10, 20, 40 or 80 µg/mℓ final concentrations respectively.

Feline Herpes virus = settings: 50 µg/mℓ
[2] = tested on: feline immunodeficiency virus (FIV); assay: In vivo anti-FIV test in an experimentally infected cat: antibody titer, haematology, lymphocyte subsets; settings: 5 mg/kg s.c. weekly from week 10; for WBC: pre-treatment weeks 0/6: 11.8/13.2; for CD4⁺: pre-treatment weeks 0/6: 460/350; for CD8⁺: pre-treatment weeks 0/6: 1115/721; for CD3⁺: pre-treatment weeks 0/6: 1742/1219; for Lymph.: lymphocytes, pre-treatment weeks 0/6: 2600/2380
Procedure: The substance was tested at a dosage rate of 5 mg/kg body mass on a cat infected with feline immunodeficiency virus, administered by subcutaneous injection at weekly intervals over a period of 13 weeks.
A cat which had been experimentally infected with a strain of feline immunodeficiency virus (FIV) using the blood of a naturally infected cat was used for this experiment. […] The haematological and immunological parameters were monitored during the dosage period as described below.
A specimen of blood was used to determine the antibody titer to FIV using a commercial kit (CITE Combo, Indexx Corporation, Portland). The serum was diluted with saline solution and each serum diulation was tested in order to determine the highest dilution yielding positive results. This dilution was subsequently used as the cut-off titer of positivity. The titer of antibodies was determined at regular intervals during the treatment period.
Whole blood was diluted by 50% with RPMI medium and layered on to Histopaque (Sigma) and centrifuged at 200 gravities for 25 minutes. The cells at the interface were collected and washed three times with RPMI. These cells represented the mononuclear cells of the blood and were used for determining the percentage of T-cells and the subsets thereof as described hereunder.
Cells (1 x 10⁶) were incubated in test tubes with aliquots of monoclonal antibody reactive with CD3, CD4 and CD8 antigens. The mixtures of different antibodies were conducted as follows: CD3-FITC + CD4-PE CD3-FITC + CD8-PE
The tubes were incubated for 20 minutes at room temperature and following two washes with phosphate-buffered saline solution (PBS), the cells were fixed with 400 µℓ PBS containing 0.5% formaldehyde.
Cell fluoresence was assessed using a FACScan cytometer. […] The analysis was conducted using the LYSIS II software programme after having set a lymphocyte gate on the FSC versus SSC scattergram. All the results were expressed as percentage positive lymphocytes, i.e. cells which co-expressed CD3 and CD4 or CD3 and CD8 markers. In this way, CD4⁺ T cells, and in a similar fashion, CD8⁺ NK cells, were excluded from the CD3⁺ CD8⁺ T-suppressor cells.
Absolute cell numbers were calculated from basic haematology conducted on an aliquot of the whole blood. From the percentage lymphocyte differential counts, absolute values for positive cells could be calculated. This was conducted for all subsets analyzed.

[3] = tested on: Feline Infectious Peritonitis Virus
blood clotting = settings: 50 µg/mℓ, prothrombin time in vitro
Procedure: Prothrombin Time was measured according to standard techniques using CaCl₂, citrated-plasma and prothrombin.

[4] = for Elimination half-life: open two-compartment model
From the text: Two test animals were used. […] Anaesthesia was maintained with halothane. […] Twenty-five blood samples (1.5 mℓ each) were drawn from each test animal at intervals appropriate to the pharmacokinetic modelling. […]

Compound: CC[C@H](CC[C@@H](C)[C@H]1CC[C@H]2[C@@H]3CC=C4C[C@@H](O[C@@H]5O[C@H](COS(=O)(=O)O)[C@@H](OS(=O)(=O)O)[C@H](OS(=O)(=O)O)[C@H]5OS(=O)(=O)O)CC[C@]4(C)[C@H]3CC[C@]12C)C(C)C [BSSG-(SO₄⁻)₄, β-Sitosteryl β-D-glucoside tetra-sulphate]
- % Viability ([1]; Cells + PHA + 10 µg/mℓ): 80%
- % Viability ([1]; Cells + PHA + 20 µg/mℓ): 85%
- % Viability ([1]; Cells + PHA + 40 µg/mℓ): 82%
- % Viability ([1]; Cells + PHA + 80 µg/mℓ): 83%
- viability of test cells, trend with concentration ([1]; from 10 to 80 µg/mℓ): no tendency to toxicity
- cytopathic effect of Feline Herpes virus (Feline Herpes virus): delayed by a day
- WBC ([2]; time 12 weeks): 14.7 x10⁹/ℓ
- CD4⁺ ([2]; time 12 weeks): 315 µL
- CD8⁺ ([2]; time 12 weeks): 432 µL
- CD3⁺ ([2]; time 12 weeks): 964 µL
- WBC ([2]; time 17 weeks): 14.0 x10⁹/ℓ
- CD4⁺ ([2]; time 17 weeks): 763 µL
- CD8⁺ ([2]; time 17 weeks): 1066 µL
- CD3⁺ ([2]; time 17 weeks): 2035 µL
- WBC ([2]; time 23 weeks): 15.5 x10⁹/ℓ
- CD4⁺ ([2]; time 23 weeks): 850 µL
- CD8⁺ ([2]; time 23 weeks): 1610 µL
- CD3⁺ ([2]; time 23 weeks): 2894 µL
- Lymph. ([2]; time 12 weeks): 2940 µL
- Lymph. ([2]; time 17 weeks): 3220 µL
- Lymph. ([2]; time 23 weeks): 3990 µL
- viral cytopathic effect ([3]; 5, 12.5, 25 and 50 µg/mℓ, 10²-, […]): completely inhibited
- cytopathic effect of the drug alone ([3]; without virus): no cytopathic effect
- inhibition of P24 protein synthesis (HIV-1; 50 µg/mℓ, from a number of tests): 80 - 100%
- concentration that inhibits P24 protein synthesis by 50% (HIV-1; by extrapolation of the data in Table 3 (4 days), may vary with lymphocyte batch and HIV-1 titre): 9 µg/mL
- anti-HIV-1 effect (in words) (HIV-1; in terms of P24 protein production, Tables 1-3): marked anti-HIV-1 effects
- % INHIBITION OF P24 PROTEIN PRODUCTION (HIV-1; test concentration 0.78 µg/mℓ, duration 4 days): 4%
- % INHIBITION OF P24 PROTEIN PRODUCTION (HIV-1; test concentration 3.125 µg/mℓ, duration 4 days): 27%
- % INHIBITION OF P24 PROTEIN PRODUCTION (HIV-1; test concentration 10 µg/mℓ, duration 6 days): 55%
- % INHIBITION OF P24 PROTEIN PRODUCTION (HIV-1; test concentration 12.5 µg/mℓ, duration 4 days): 65%
- % INHIBITION OF P24 PROTEIN PRODUCTION (HIV-1; test concentration 25 µg/mℓ, duration 4 days): 61% and 88%
- % INHIBITION OF P24 PROTEIN PRODUCTION (HIV-1; test concentration 25 µg/mℓ, duration 6 days): 91%
- % INHIBITION OF P24 PROTEIN PRODUCTION (HIV-1; test concentration 50 µg/mℓ, duration 4 days): 83% and 96%
- % INHIBITION OF P24 PROTEIN PRODUCTION (HIV-1; test concentration 50 µg/mℓ, duration 6 days): 100%
- % INHIBITION OF P24 PROTEIN PRODUCTION (HIV-1; test concentration 100 µg/mℓ, duration 4 days): 99%
- effect on blood clotting (blood clotting): did not affect blood clotting
- Elimination half-life ([4]; High Dose (750 mg) i.v.): 22 h
- Peak plasma concentration ([4]; High Dose (750 mg), i.v. infusion 30 minutes, total dose 55.6 mg/kg): 364 µg/mL
- Elimination half-life ([4]; Low Dose (120 mg) i.v.): 12 h
- Peak plasma concentration ([4]; Low Dose (120 mg), i.v. infusion 15 minutes, total dose 7.14 mg/kg): 102 µg/mL
- haemolysis in the blood samples ([4]; baboon receiving the lower dose (120 mg i.v.)): no evidence of haemolysis
- haemolysis in the blood samples ([4]; high-dose test animal (750 mg i.v.)): macroscopic evidence of haemolysis
- plasma elimination half-life ([4]; i.v., range over the two doses (120 mg, 750 mg)): 12 - 20 hours and 12 and 22 hours
- haemodynamic effects ([4]; intravenous administration, very high plasma concentrations): did not appear to be any deleterious haemodynamic effects

From patent EP0587374A2, “Sulfated sterol glycosides and their use against viral infections” (VIROSTAT (NA) NV, priority 1992, dated 1994)
